Reference: patent US20060051754A1, “Transporter selectively transporting sulfate conjugate and its gene” (Japan Science and Technology Agency, priority 2002, published 2006)
Counter-ions that a name gives are not always drawn.

How the values were obtained:
Type in all cases: cell-based
[1] = target: T1, human OAT7 (Homo sapiens, UniProt Q8IVM8); test: inhibition of [3H]estrone-sulfate conjugate uptake by OAT7-expressing oocyte (substrate selectivity); settings: [3H]estrone-sulfate conjugate 1 μM, 100 μM of unlabeled compound; FIGS. 8, 9, 10A and 10B
T1 construct: expressed in transfected cells
T1 sequence (Q8IVM8 whole entry): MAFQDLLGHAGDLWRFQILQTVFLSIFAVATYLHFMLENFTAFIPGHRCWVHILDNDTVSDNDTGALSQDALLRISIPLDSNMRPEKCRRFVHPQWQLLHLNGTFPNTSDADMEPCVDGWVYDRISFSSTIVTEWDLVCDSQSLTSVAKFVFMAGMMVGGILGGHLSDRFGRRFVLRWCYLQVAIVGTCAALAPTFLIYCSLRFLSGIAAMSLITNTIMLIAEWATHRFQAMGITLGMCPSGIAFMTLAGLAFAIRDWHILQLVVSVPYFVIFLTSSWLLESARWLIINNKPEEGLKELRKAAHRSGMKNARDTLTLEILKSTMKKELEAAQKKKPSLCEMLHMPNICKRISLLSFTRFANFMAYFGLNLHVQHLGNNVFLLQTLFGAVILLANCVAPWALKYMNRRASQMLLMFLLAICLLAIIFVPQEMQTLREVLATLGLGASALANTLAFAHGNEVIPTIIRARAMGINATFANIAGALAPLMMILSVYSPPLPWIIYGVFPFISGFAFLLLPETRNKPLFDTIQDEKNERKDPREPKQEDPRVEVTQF
Experimental: (§1) A substrate uptake experiment was performed on the oocyte into which the human OAT7 gene cRNA was injected and a control oocyte into which water was injected, using the [^3H]estrone-sulfate conjugate and the [^3H]dehydroepiandrosterone-sulfate conjugate as the substrates in accordance with the method of Kanai et al. (Kanai and Hediger, Nature, Vol. 360, pp. 467 to 471, 1992) as described below. After leaving the oocyte in an ND96 solution (96 mM sodium chloride, 2 mM potassium chloride, 1.8 mM calcium chloride, 1 mM magnesium chloride, 5 mM HEPES, pH7.4) containing the [^3H]estrone-sulfate conjugate (50 nM) and the [^3H]dehydroepiandrosterone-sulfate conjugate (100 nM) as a substrate for 60 minutes, and an uptake ratio of the substrate was measured by way of counting radioactivity taken up into the cells.
In the [^3H]estrone-sulfate conjugate uptake experiment using an oocyte into which the human OAT7 gene cRNA was injected, the effect of addition of various organic anions and organic cations on the system was examined.
The [^3H]estrone-sulfate conjugate uptake experiment was conducted using the oocyte into which the human OAT7 gene cRNA was injected and in accordance with the method described in Example 2(1). In the experiment, [^3H]estrone-sulfate conjugate (1 μM) uptake was measured under the presence and the absence of 100 μM of various compounds (unlabeled).
Since OAT7 is the organic anion transporter existing in the liver, effects of various organic anions which are considered to be transported in the hepatic cells on the [^3H]estrone-sulfate conjugate uptake by way of OAT7 were examined.
In order to clarify which one of the sulfate conjugate, the glucuronide conjugate, the glutathione conjugate is accepted by OAT7, effects of various conjugate compounds on the [^3H]estrone-sulfate conjugate uptake were examined.

[2] = target: T1, human OAT7; test: substrate uptake experiment by oocyte into which the human OAT7 gene cRNA was injected
Experimental: After expressing the human OAT7 gene cRNA in an oocyte, [^3H]estrone-sulfate conjugate uptake and [^3H]dehydroepiandrosterone-sulfate conjugate uptake were measured.
After injecting 20 ng of the human OAT7 gene cRNA into the oocyte to be expressed, a 3-days culture was performed.
as §1
Time passage of the substrate uptake by the oocyte into which the human OAT7 gene cRNA was injected and a control oocyte into which water was injected was observed using the [^3H]estrone-sulfate conjugate (50 nM) as the substrate and in accordance with the method of Example 2(1).
The effect of salt added in the culture used in the [^3H]estrone-sulfate conjugate (50 nM) uptake experiment were examined using an oocyte into which the human OAT7 gene cRNA was injected and a control oocyte into which water was injected.
The [^3H]estrone-sulfate conjugate uptake experiment was conducted in accordance with the method described in Example 2(1) using the oocyte into which the human OAT7 gene cRNA was injected. In the experiment, a sodium ion free absorption solution (wherein 96 mM sodium chloride was substituted with 96 mM choline chloride) was used as an uptake solution in place of the standard absorption solution for the purpose of observing the effect of the sodium ion.

[3] = target: T1, human OAT7; test: Michaelis-Menten kinetics test on OAT7 (oocyte uptake); settings: mean±standard error; OAT7-expressing oocyte; FIGS. 7A and 7B
Experimental: as §1
A Michaelis-Menten kinetics test on the liver specific organic anion transporter OAT7 selectively transporting a sulfate conjugate was conducted. The Michaelis-Menten kinetics test on OAT7 was performed by examining changes in uptake ratio of the substrate [^3H]estrone-sulfate conjugate and the [^3H]dehydroepiandrosterone-sulfate conjugate depending on the concentrations of the substrate [^3H]estrone-sulfate conjugate and the [^3H]dehydroepiandrosterone-sulfate conjugate. […]

Compound	cys-inhibition effect on [3H]estrone-sulfate conjugate uptake [1]	further results
C[C@]12CC[C@H](OS(=O)(=O)O)CC1=CC[C@@H]1[C@@H]2CC[C@]2(C)C(=O)CC[C@@H]12 [dehydroepiandrosterone-sulfate conjugate]	significant cys-inhibition effect	[3H]dehydroepiandrosterone-sulfate conjugate uptake by oocytes in which OAT7 was expressed vs control oocyte into which water was injected ([2]; substrate 100 nM, ND96 solution pH7.4, 60 minutes, FIG. 6A): significantly greater; Km [3]: 2.2 ± 0.3 µM
C[C@]12CC[C@@H]3c4ccc(OS(=O)(=O)O)cc4CC[C@H]3[C@@H]1CCC2=O [estrone-sulfate conjugate]	significant cys-inhibition effect	[3H]estrone-sulfate conjugate uptake by oocytes in which OAT7 was expressed vs control oocyte into which water was injected ([2]; substrate 50 nM, ND96 solution pH7.4, 60 minutes, FIG. 6A): significantly greater; effect of change of extracellular sodium to choline on uptake ([2]; substrate 50 nM, 96 mM sodium chloride substituted with 96 mM choline chloride, FIG. 6C): no effect; time dependency of uptake by way of OAT7 ([2]; substrate 50 nM, FIG. 6B): increases substantially linearly in a time dependent manner till the passage of 120 minutes; Km [3]: 8.7 ± 1.1 µM
O=C1OC(c2ccc(O)c(S(=O)(=O)O)c2)(c2ccc(O)c(S(=O)(=O)O)c2)c2c(Br)c(Br)c(Br)c(Br)c21 [sulfobromophthalein]	significant cys-inhibition effect	–
CC1(C)C(/C=C/C=C/C=C/C=C2\N(CCCCS(=O)(=O)[O-])c3ccc4ccccc4c3C2(C)C)=[N+](CCCCS(=O)(=O)[O-])c2ccc3ccccc3c21.[Na+] [indocyanin green]	significant cys-inhibition effect	–
O=[N+]([O-])c1ccc(OS(=O)(=O)O)cc1 [p-nitrophenol-sulfate conjugate]	significant cys-inhibition effect	–
N=c1nc(N2CCCCC2)cc(N)n1OS(=O)(=O)O [minoxidil-sulfate conjugate]	significant cys-inhibition effect	–
Cc1cc(=O)oc2cc(OS(=O)(=O)O)ccc12 [4-methylumbelliferyl sulfate conjugate]	significant cys-inhibition effect	–
C[C@]12CC[C@@H]3c4ccc(OS(=O)(=O)O)cc4CC[C@H]3[C@@H]1CC[C@@H]2O [β-estradiol-sulfate conjugate]	significant cys-inhibition effect	–
